Data taken from US20060079453A1, “Hla binding peptides and their uses” (priority 2002, published 2006).
No end group written: not given here.

Experiments:
Test in all cases: biochemical
Format in all cases: binding
[1] = biological target: HLA-DR DRB1*0802 (DR8) (Homo sapiens, UniProt P01903+P01911, A100R/A103L/A169T/F76Y/H45Y/I96F/K41T/L162R/M171V/P40S/Q125H/Q178H/Q39Y/Q99D/R218S/R42G/S66Y/V115G/W38E)
[2] = biological target: HLA-DR DRB1*0101 (DR1) (Homo sapiens, UniProt P01903+P01911, A100R/D57E/F55L/F60I/F76Y/I96L/L162R/M171V/P40L/Q125E/R42F/V115G/Y59C); conditions: DRB1 *0101
[3] = biological target: HLA-DR DRB1*1302 (DR13) (Homo sapiens, UniProt P01903+P01911, A100E/A169T/K41T/L162R/M171V/P40S/Q125H/Q178H/Q39Y/Q99D/R42S/S66N/T262R/V115G/W38E/Y61H); conditions: DRBI *1302
Sequence of HLA-DR DRB1*1302 (DR13) (P01903 26-254 limits assumed, other chains not shown): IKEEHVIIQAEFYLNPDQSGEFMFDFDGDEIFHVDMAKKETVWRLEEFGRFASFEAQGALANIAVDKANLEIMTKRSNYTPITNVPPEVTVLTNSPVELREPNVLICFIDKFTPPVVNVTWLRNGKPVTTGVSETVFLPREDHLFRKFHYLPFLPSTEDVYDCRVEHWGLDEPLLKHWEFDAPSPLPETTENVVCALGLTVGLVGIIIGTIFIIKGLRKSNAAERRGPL

[4] = biological target: HLA-DR DRB1*0401 (DR4) (Homo sapiens, UniProt P01903+P01911, A100K/A169T/F76Y/I96L/K127E/L162R/M171V/N62H/P40V/Q125Y/R42H/S133A/S149N/S66Y/V115G/V209L/W38E); conditions: DRB1 *0401
[5] = biological target: HLA-DR DRB1*1101 (DR11) (Homo sapiens, UniProt P01903+P01911, A100R/A169T/A87E/I96F/K41T/L162R/M171V/P40S/Q125H/Q178H/Q39Y/Q99D/R42S/S66Y/T262R/V115G/W38E); conditions: DRB1 *1101
Sequence of HLA-DR DRB1*1101 (DR11) (P01903 26-254 limits assumed, other chains not shown): as above

[6] = biological target: HLA-DR DRB1*0301 (DR3) (Homo sapiens, UniProt P01903+P01911, A100K/A102G/A103R/A169T/F55Y/I96L/K41T/L162R/M171V/P40S/Q125H/Q178H/Q39Y/R42S/S66N/T106N/T262R/W38E/Y61H)
Sequence of HLA-DR DRB1*0301 (DR3) (P01903 26-254 limits assumed, other chains not shown): as above

[7] = biological target: HLA-DR DRB1*0901 (DR9) (Homo sapiens, UniProt P01903+P01911, A100R/A103E/D57H/D86V/F55Y/F60I/F76Y/I96F/K127E/L162R/M171V/P40D/Q125H/Q99R/R33Q/R42F/S133A/S66N/T210M/V115G/W38K/Y107V/Y59G/Y89S); conditions: DRB1 *0901
[8] = biological target: HLA-DR DRB1*0701 (DR7) (Homo sapiens, UniProt P01903+P01911, A100R/A102G/A103Q/D57E/D86V/E43K/F76Y/K127E/L162R/M171V/P40G/Q125H/Q99D/R33Q/R42Y/R54Q/S133A/S66F/T210M/V115G/Y107V/Y59L/Y89S); conditions: DRB1 *0701
[9] = biological target: HLA-DR DRB3*0101 (DR52) (Homo sapiens, UniProt P01903+P79483)
[10] = biological target: HLA-DR DRB4*0101 (DR53) (Homo sapiens, UniProt P01903+P13762, G164S); conditions: DRB4 *0101
[11] = biological target: HLA-DR DRB1*1501 (DR15) (Homo sapiens, UniProt P01903+P01911); conditions: DRBI *1501
[12] = biological target: HLA-DR DRB5*0101 (DR51) (Homo sapiens, UniProt P01903+Q30154); conditions: DRB5 *0101

Compound	IC50 [1] [nM]	IC50 [2] [nM]	IC50 [3] [nM]	IC50 [4] [nM]	IC50 [5] [nM]	IC50 [6] [nM]	IC50 [7] [nM]	IC50 [8] [nM]	IC50 [9] [nM]	IC50 [10] [nM]	IC50 [11] [nM]	IC50 [12] [nM]
NGVLQGITSWGSEPC	5870	945	775	560	9720	24900	819	485	8040	4490	258	–
GVILYSDPADYFAPG	106000	1570	39	7510	> 18900	17	2470	7850	8.8	64	965	–
CC[C@H](C)[C@H](N)C(=O)N[C@@H](CCCCN)C(=O)N[C@@H](CCCCN)C(=O)N[C@@H](Cc1ccccc1)C(=O)N[C@@H](CC(C)C)C(=O)N[C@@H](Cc1ccc(O)cc1)C(=O)N[C@@H](CC(N)=O)C(=O)N[C@@H](Cc1ccccc1)C(=O)N[C@H](C(=O)N[C@@H](CCC(N)=O)C(=O)N[C@H](C(=O)N1CCC[C@H]1C(=O)N[C@@H](Cc1c[nH]cn1)C(=O)N[C@@H](CC(C)C)C(=O)N[C@@H](C)C(=O)O)[C@@H](C)CC)[C@@H](C)O	512	449	27	43	137	8080	160	29	477	96	305	–
CSCC[C@H](NC(=O)[C@H](CC(C)C)NC(=O)[C@@H]1CCCN1C(=O)[C@@H](NC(=O)[C@H](CS)NC(=O)[C@H](CC(=O)O)NC(=O)[C@@H](NC(=O)[C@H](CCCNC(=N)N)NC(=O)[C@H](CC(C)C)NC(=O)[C@@H](NC(=O)[C@H](Cc1ccc(O)cc1)NC(=O)[C@@H](N)CC(N)=O)[C@@H](C)O)C(C)C)[C@@H](C)O)C(=O)N[C@@H](Cc1ccc(O)cc1)C(=O)N[C@@H](CO)C(=O)N[C@@H](CC(C)C)C(=O)O	6320	6800	9	9.9	7120	45	48400	24600	25	–	5060	66700
LTELYFEKGEYFVEM	18800	–	3160	8050	> 18900	592	26900	–	124	601	> 2370	6660
CC[C@H](C)[C@H](NC(=O)[C@@H]1CCCN1)C(=O)N[C@@H](CC(C)C)C(=O)N[C@@H](CC(C)C)C(=O)N[C@@H](Cc1c[nH]c2ccccc12)C(=O)N[C@@H](CCC(N)=O)C(=O)N1CCC[C@H]1C(=O)N[C@H](C(=O)N1CCC[C@H]1C(=O)N[C@H](C(=O)N[C@@H](Cc1c[nH]cn1)C(=O)N[C@H](C(=O)N[C@H](C(=O)N1CCC[C@H]1C(=O)N[C@@H](CC(C)C)C(=O)O)C(C)C)[C@@H](C)O)C(C)C)[C@@H](C)CC	21200	44	567	258	4040	> 81800	168	46	> 8830	–	6.9	41500
